Target: T1, KCC2 (Homo sapiens, UniProt Q9H2X9)
T1 construct: expressed in transfected cells; host or cells: HEK293 cells electroporated (Maxcyte STX) with the pcDNA3.1 KCC2 plasmid
T1 sequence (Q9H2X9 1-1139): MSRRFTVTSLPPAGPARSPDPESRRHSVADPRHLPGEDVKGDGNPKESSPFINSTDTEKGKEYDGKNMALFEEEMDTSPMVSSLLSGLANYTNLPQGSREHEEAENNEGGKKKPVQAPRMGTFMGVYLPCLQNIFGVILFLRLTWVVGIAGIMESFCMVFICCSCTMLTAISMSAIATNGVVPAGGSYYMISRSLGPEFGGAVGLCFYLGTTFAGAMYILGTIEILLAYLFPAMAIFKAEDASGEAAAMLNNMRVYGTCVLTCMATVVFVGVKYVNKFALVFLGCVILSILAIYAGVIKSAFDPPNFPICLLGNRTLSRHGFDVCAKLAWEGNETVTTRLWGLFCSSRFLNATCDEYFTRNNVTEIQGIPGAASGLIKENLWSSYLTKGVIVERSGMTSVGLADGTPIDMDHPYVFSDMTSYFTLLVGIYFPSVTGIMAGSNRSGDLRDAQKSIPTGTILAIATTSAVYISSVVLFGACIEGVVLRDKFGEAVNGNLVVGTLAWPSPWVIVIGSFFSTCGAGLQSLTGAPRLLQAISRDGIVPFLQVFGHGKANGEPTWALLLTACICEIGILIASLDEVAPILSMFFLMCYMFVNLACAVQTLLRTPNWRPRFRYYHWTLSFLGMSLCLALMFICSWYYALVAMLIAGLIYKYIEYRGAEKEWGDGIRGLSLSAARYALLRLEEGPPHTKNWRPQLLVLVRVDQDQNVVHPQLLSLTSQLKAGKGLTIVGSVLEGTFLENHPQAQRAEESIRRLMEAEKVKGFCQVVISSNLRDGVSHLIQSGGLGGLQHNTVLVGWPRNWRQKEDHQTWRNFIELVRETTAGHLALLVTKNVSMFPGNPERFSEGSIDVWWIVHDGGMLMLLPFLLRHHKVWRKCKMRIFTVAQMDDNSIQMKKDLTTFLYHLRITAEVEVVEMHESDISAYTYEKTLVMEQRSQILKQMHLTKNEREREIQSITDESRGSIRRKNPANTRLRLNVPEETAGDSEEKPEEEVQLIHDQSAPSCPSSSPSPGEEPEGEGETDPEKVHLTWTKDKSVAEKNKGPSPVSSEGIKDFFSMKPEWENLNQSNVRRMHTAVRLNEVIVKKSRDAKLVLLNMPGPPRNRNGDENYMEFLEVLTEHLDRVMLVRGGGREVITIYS
Assay: KCC2 thallium transport FLIPR-based assay (Tl+ influx in HEK293 cells expressing KCC2)
Type: cell-based
Conditions: 90 min compound incubation at RT, thallium flux at 120 s used to determine EC50
Description: A thallium transport FLIPR-based assay was used to measure the ability of compounds to activate KCC2. KCC2 activity is assessed by measuring KCC2-dependent Tl^+ influx in a KCC2-expressing cell. The assay protocol was based on those described by Delpire et al (Proc Natl Acad Sci USA. 2009 Mar. 31; 106(13): 5383-5388) and Zhang et al (Journal of Biomolecular Screening 15(2): 2010).
KCC2 was synthesised and codon optimised by GeneArt based on the Uniprot sequence Q9H2X9. The final sequence was subcloned into pcDNA3.1.
HEK293 cells were grown in 10 layer cell stacks at 37° C., 5% CO2, in DMEM, 10% fetal calf serum and 2 mM Glutamine. The cells were detached by removing the media and washing the cell stack with 100 ml of PBS. The PBS was removed and 100 ml of 1× TrypLE was added and the cell stack returned to 37° C. for 5 min. The detached cells were then counted in a Vi Cell counter and spun for 10 min at 1250 rpm in a Sorval Legend centrifuge. The cells were diluted down in Maxcyte electroporation buffer at 4× the final concentration and spun as before. The cell pellet was resuspended at 1×10^8/cells per ml and electroporated in a Maxcyte Cl 2.2 bag on a Maxcyte STX machine via the HEK293 programme with 200 ug/ml of plasmid DNA. The cells were then allowed to recover for 30 min before adding to 500 ml of PBS and then counted again on the Vi Cell. The cells were then frozen down in planer controlled rate freeze in 90% complete media, 10% DMSO.
All reagents were dispensed using a Mulitdrop Combi unless stated otherwise. All FluXOR Invitrogen propriety buffer compositions are mentioned in tables below.
HEK293 KCC2 cells were harvested at a density of 3.33×10^5 cells/mL in complete media (DMEM, Sigma, D6546, 10% fetal calf serum and 1% Glutamax) and 30 μL per well seeded into 384-well PDL coated black-clear plates (Corning, 354663). Leave cells at RT for 20 mins to settle before incubating for 48 h at 37° C., 5% CO2. Following incubation, perform three wash steps in HBSS (Sigma, H6648) using a Biotek cell washer with the final aspiration leaving 20 μL HBSS residual volume in each well. A further 20 μL per well of thallium loading dye is then added (1 h, RT, protect from light). 5 μL of test compounds (100 μM top concentration, 1:2 dilutions, 12 point curve) were added using the FLIPR TETRA and incubated at RT for 90 min in the dark. Following compound incubation, the thallium flux response is read on FLIPR TETRA (ex. 515-575 nm) which is initiated by FLIRR TETRA dispensing 5 μL stimulus buffer into each well. Recordings are measured every 1 second for 120 seconds. Thallium flux at 120 s used to determine EC50.
Compound buffer: Assay buffer with 1 μL of bumetanide per 10 ml.

Row | SMILES | EC50 [µM]
1 | C[C@@H]1CN(c2nc(Nc3ccc(C4CCCCC4)cc3)c3cc(C(=O)O)cnc3n2)CCO1 [Example 103, (R)-4-((4-cyclohexylphenyl)amino)-2-(2-methylmorpholino)pyrido[2,3-d]pyrimidine-6-carboxylic acid] | 3.99
2 | CC(C)N1Cc2c(Nc3ccc(C4CCCCC4)cc3)nc(N3CCOC(CC(F)(F)F)C3)nc2C1=O (stereo not drawn) [Example 16, 4-[(4-cyclohexylphenyl)amino]-6-(propan-2-yl)-2-[2-(2,2,2-trifluoroethyl)morpholin-4-yl]-5,6-dihydro-7H-pyrrolo[3,4-d]pyrimidin-7-one] | 0.749
3 | CCOCCN(C)c1nc(Nc2ccc(C3CCCCC3)cc2)c2c(n1)C(=O)N(C(C)C)C2 [Example 20, 4-[(4-cyclohexylphenyl)amino]-2-[(2-ethoxyethyl)(methyl)amino]-6-(propan-2-yl)-5,6-dihydro-7H-pyrrolo[3,4-d]pyrimidin-7-one] | 2.35
4 | CCC1CN(c2nc(Nc3ccc(C4CCCCC4)cc3)c3c(n2)C(=O)N(C(C)C)C3)CCO1 (stereo not drawn) [Example 21, 4-[(4-cyclohexylphenyl)amino]-2-(2-ethylmorpholin-4-yl)-6-(propan-2-yl)-5,6-dihydro-7H-pyrrolo[3,4-d]pyrimidin-7-one] | 2.64
5 | CC(C)N1Cc2c(Nc3ccc(C4CCCCC4)cc3)nc(-c3ccnc(C#N)c3)nc2C1=O [Example 41, 4-(4-((4-cyclohexylphenyl)amino)-6-isopropyl-7-oxo-6,7-dihydro-5H-pyrrolo[3,4-d]pyrimidin-2-yl)picolinonitrile] | 0.518
6 | COc1cc(-c2nc(Nc3ccc(C4CCCCC4)cc3)c3c(n2)C(=O)N(C(C)C)C3)ccn1 [Example 43, 4-[(4-cyclohexylphenyl)amino]-2-(2-methoxypyridin-4-yl)-6-(propan-2-yl)-5,6-dihydro-7H-pyrrolo[3,4-d]pyrimidin-7-one] | 0.738
7 | CC(C)N1Cc2c(Nc3ccc(C4CCCCC4)cc3)nc(N(C)CC3CC3)nc2C1=O [Example 30, 4-[(4-cyclohexylphenyl)amino]-2-[(cyclopropylmethyl)(methyl)amino]-6-(propan-2-yl)-5,6-dihydro-7H-pyrrolo[3,4-d]pyrimidin-7-one] | 4.05
8 | CC(C)N1Cc2c(Nc3ccc(C(F)(F)C(F)(F)F)cc3)nc(N3CCOC(C4CC4)C3)nc2C1=O (stereo not drawn) [Example 58, 2-(2-cyclopropylmorpholin-4-yl)-4-{[4-(pentafluoroethyl)phenyl]amino}-6-(propan-2-yl)-5,6-dihydro-7H-pyrrolo[3,4-d]pyrimidin-7-one] | 3.78
9 | Cc1cc(-c2nc3c(c(Nc4ccc(C5CCCCC5)cc4)n2)COC3)ccn1 [Example 95, N-(4-cyclohexylphenyl)-2-(2-methylpyridin-4-yl)-5,7-dihydrofuro[3,4-d]pyrimidin-4-amine] | 3.22
10 | CCCCCCCOc1ccc(-c2ccc(Nc3nc(N4CCOC(C5CC5)C4)nc4c3CN(C(C)C)C4=O)cc2)cc1 (stereo not drawn) [Example 53, 2-(2-cyclopropylmorpholin-4-yl)-4-{[4′-(heptyloxy)[1,1′-biphenyl]-4-yl]amino}-6-(propan-2-yl)-5,6-dihydro-7H-pyrrolo[3,4-d]pyrimidin-7-one] | 0.215

Second part, the compound after the results:

Row | EC50 [µM] | SMILES
11 | 5.35 | CN(C)C(=O)CN1Cc2nc(C3=CCOCC3)nc(Nc3ccc(C4CCCCC4)cc3)c2C1 [Example 111, 2-{4-[(4-cyclohexylphenyl)amino]-2-(3,6-dihydro-2H-pyran-4-yl)-5,7-dihydro-6H-pyrrolo[3,4-d]pyrimidin-6-yl}-N,N-dimethylacetamide]
12 | 4.74 | CC(C)N1Cc2c(Nc3ccc(-c4cccs4)cc3)nc(N3CCOCC3)nc2C1=O [Example 113, 2-(morpholin-4-yl)-6-(propan-2-yl)-4-{[4-(thiophen-2-yl)phenyl]amino}-5,6-dihydro-7H-pyrrolo[3,4-d]pyrimidin-7-one]
13 | 1.17 | NC(=O)c1cnc2nc(N3CCOC(C4CC4)C3)nc(Nc3ccc(C4CCCCC4)cc3)c2c1 (stereo not drawn) [Example 105, 4-((4-cyclohexylphenyl)amino)-2-(2-cyclopropylmorpholino) pyrido[2,3-d]pyrimidine-6-carboxamide]
14 | 3.51 | CC(C)N1Cc2c(Nc3ccc(-c4ccc(Cl)cc4)cc3)nc(N3CCOCC3)nc2C1=O [Example 89, 4-[(4′-chloro[1,1′-biphenyl]-4-yl)amino]-2-(morpholin-4-yl)-6-(propan-2-yl)-5,6-dihydro-7H-pyrrolo[3,4-d]pyrimidin-7-one]
15 | 3.79 | C[C@@H]1CN(c2nc(Nc3ccc(C4CCCCC4)cc3)c3ccc[n+]([O-])c3n2)CCO1 [Example 99, (R)-4-((4-cyclohexylphenyl)amino)-2-(2-methylmorpholino)pyrido [2,3-d]pyrimidine 8-oxide]
16 | 1.71 | CC(C)N1Cc2c(Nc3ccc(C4CCCCC4)cc3)nc(N3CCO[C@H](C)C3)nc2C1=O [Example 13, 4-[(4-cyclohexylphenyl)amino]-2-[(2R)-2-methylmorpholin-4-yl]-6-(propan-2-yl)-5,6-dihydro-7H-pyrrolo[3,4-d]pyrimidin-7-one]
17 | 5.21 | CCN(CC)c1nc(Nc2ccc(C3CCCCC3)cc2)c2c(n1)C(=O)N(C(C)C)C2 [Example 34, 4-[(4-cyclohexylphenyl)amino]-2-(diethylamino)-6-(propan-2-yl)-5,6-dihydro-7H-pyrrolo[3,4-d]pyrimidin-7-one]
18 | 6.3 | CCc1cnc2nc(N3CCO[C@H](C)C3)nc(Nc3ccc(C4CCCCC4)cc3)c2c1 [Example 100, (R)—N-(4-cyclohexylphenyl)-6-ethyl-2-(2-methylmorpholino) pyrido[2,3-d]pyrimidin-4-amine]
19 | 4.46 | CCCc1ccc(Nc2nc(N3CCOC(C4CC4)C3)nc3c2CN(C(C)C)C3=O)cc1 (stereo not drawn) [Example 59, 2-(2-cyclopropylmorpholin-4-yl)-6-(propan-2-yl)-4-[(4-propylphenyl)amino]-5,6-dihydro-7H-pyrrolo[3,4-d]pyrimidin-7-one]
20 | 3.41 | CC(C)N1Cc2c(Nc3ccc(C4CCCCC4)cc3)nc(N3CCOC4(CCOCC4)C3)nc2C1=O [Example 25, 4-[(4-cyclohexylphenyl)amino]-2-(1,9-dioxa-4-azaspiro[5.5]undecan-4-yl)-6-(propan-2-yl)-5,6-dihydro-7H-pyrrolo[3,4-d]pyrimidin-7-one]
21 | 0.707 | CC(C)N1Cc2c(Nc3ccc(C4CCCCC4)cc3)nc(N3CCOC(C4CC4)C3)nc2C1=O (single isomer, unassigned) [Example 14, 4-[(4-cyclohexylphenyl)amino]-2-(2-cyclopropylmorpholin-4-yl)-6-(propan-2-yl)-5,6-dihydro-7H-pyrrolo[3,4-d]pyrimidin-7-one]

— patent US12617795B2, “Substituted 6,7-dihydro-5H-pyrrolo[3,4-d]pyrimidines, 5,7-dihydrofuro[3,4-d]pyrimidines, and pyrido[2,3-d]pyrimidines as KCC2 modulators” (Astrazeneca AB, priority 2020, dated 2026)
